Counter-ions that a name gives are not always drawn.
Legend:
[1] = tested on: MSCA1+ cells (CD45−/CD34+/CD31−/CD271+/MSCA1+); test: In vitro adipogenesis of the immunoselected MSCA1+ cell subset; type: cell-based, human; settings: IBMX stimulation
Source text: (§1) An immuno-selection/depletion approach was developed to obtain the native progenitor cell subsets starting from 50.10^6 to 150.10^6 SVF cells. The total progenitor cell population (CD34+/CD31− cells) was obtained in two steps: immune cells were first removed using CD45 positive cell-depletion step (CD45-depletion kit from Stemcell Technologies, Grenoble, France) followed by endothelial cell depletion step using an anti-CD31-depletion kit (R&D Systems, Lille, France) according to manufacturer's protocol. To further isolate the distinct progenitor cell subsets, the Mscal-positive cells were selected from the CD45−/CD31− cells, the −/CD271 positive cells were selected from the CD45−/CD31−/MSCA1− cells and the CD45−/CD31−/MSCA1−/CD271− (−/−) cells using CD34 immuno-magnetic selection kits (MSCA1+, CD271+ and CD34+ immuno-magnetic selection kits were from Miltenyi Biotec, Paris, France). The purity of each fraction was assessed after selection by flow cytometry analyses.
(§2) Total RNAs were extracted using the RNeasy kit (Qiagen). […] RNAs were reverse-transcribed using Superscript® II kit (Invitrogen). TaqMan® Primers are listed in supplemental data Table 1.
Cells or small pieces of whole AT were fixed (paraformaldehyde 4%, room temperature for 15 min for cultured cells and up to 1 h for whole AT). […]

[2] = tested on: whole native progenitor cells (CD45−/CD34+/CD31−); test: In vitro adipogenesis of whole native progenitor cells; type: cell-based, human; settings: 0.25 mM IBMX for 3 days, ITTC medium until day 10
Source text: as §1

[3] = tested on: native human AT progenitor cells
Method: 120 000 cells were plated per cm^2 in growth medium (ECGM MV) supplemented with […] penicillin-streptomycin. 48 h after seeding, medium was changed into basal defined medium (ECBM) supplemented with […] penicillin-streptomycin, 66 nmol/L Insulin, 1 nmol/L Triiodothyronine, 0.1 μg/ml human Transferrin, 100 nmol/L Cortisol (ITTC, Control) supplemented or not with 3 μmol/L Rosiglitazone or 0.25 mM isobuthylmethaxantine (IBMX). After 3 days, medium was changed and cells were maintained in ITTC medium until day 10. Cells were fixed (paraformaldehyde 4%, 15 min, RT), and stained with Bodipy 493/503 (10 μg/ml, 15 min, Invitrogen) and Hoechst 33342 (5 μg/ml, 15 min, Invitrogen). Stainings were observed by inversed fluorescent microscope (Nikon Eclipse TE300) and 5 pictures were randomly taken under 20X objective (numeric camera and acquisition software NIS-Elements 2.5 BR, Nikon®). Differentiation area (Bodipy stained area, μm^2) was measured with ImageJ software and normalized by nuclei cell number in order to obtain the differentiation area (μm^2) per cell. Total RNAs were extracted using the RNeasy kit (Qiagen). The RNA concentration was measured by fluorimetric assay (Ribogreen, Invitrogen). RNAs were reverse-transcribed using Superscript® II kit (Invitrogen). TaqMan® Primers are listed in supplemental data Table 1. The amplification reaction was done in duplicate on 15 ng of the cDNA samples in a final volume of 20 μL in 96-well reaction plates (Applied Biosystems) in a GeneAmp 7500 detection system (Applied Biosystems). All reactions were performed under the same conditions: 50° C. for 2 minutes, 95° C. for 10 minutes, 40 cycles of 95° C. for 15 seconds, and 60° C. for 1 minute. Results were analyzed with the GeneAmp 7500 software and all values were normalised to 18S rRNA levels. Progenitor cells were cultured under adipogenic conditions with or without 50 μM or 500 μM of tetramisole hydrochloride, an alkaline phosphatase inhibitor. After 3 to 10 days, Bodipy staining was performed or RNAs extracted. Progenitor cells were seeded at the density of 90000/cm2 cells in 12 well-plates. After 24 hours, cells were transfected with 500 ng/mL of MISSION® esiRNA against tissue non-specific alkaline phosphatase (MSCA1) or GFP as negative control with 1 μL of lipofectamine® 2000 (invitrogen) in 1 mL of basal medium. After 12 hours, medium was removed and cells were rinsed once with PBS and cultured under adipogenic conditions for 3 to 10 days and RNAs were extracted.

[4] = tested on: Progenitor cells; test: BMP7 adipogenic culture protocol; type: cell-based, human; settings: 50 ng/mL for 2 days, then 9 days in ITTC
Method: Progenitor cells were treated during 2 days with recombinant human BMP7 (50 ng/mL) then 9 days in adipogenic medium (ITTC).
MSCA1 gene expression and activity were measured. UCP1 gene expression was measured by RT-PCR.
as §2

Molecule: CC(C)Cn1c(=O)n(C)c(=O)c2[nH]cnc21 [IBMX, 3-isobutyl-1-methylxanthine]
- differentiation (lipid laden cells) ([1]; 0.25 mM): marked appearance of lipid laden cells
- UCP1-positive cell clusters ([1]; immunofluorescence): only found in cells from the MSCA1+ subset
- differentiation [2]: only slightly and insignificantly increased

Molecule: c1ccc(C2CN3CCSC3=N2)cc1 (stereo not shown) [tetramisole, tetramisole hydrochloride]
- total number of nucleated cells ([3]; 50 μM or 500 μM, adipogenic culture conditions): without altering
- adipocyte differentiation ([3]; 50 μM or 500 μM, adipogenic culture conditions, Bodipy staining): concentration-dependent decrease
- expression of adipogenic and adipocyte-specific genes after the commitment period ([3]; day 3): No statistically significant effect
- expression of adipogenic transcription factors PPARγ2, CHREBP, C/EBPα and adipocyte-specific genes LPL, GPDH, PLIN1 ([3]; day 10): decreased

B1: BMP7: recombinant human BMP7, a Bone Morphogenetic Protein (protein, UniProt P18075 293-431, looked up)
Bone morphogenetic protein 7: STGSKQRSQNRSKTPKNQEALRMANVAENSSSDQRQACKKHELYVSFRDLGWQDWIIAPEGYAAYYCEGECAFPLNSYMNATNHAIVQTLVHFINPETVPKPCCAPTQLNAISVLYFDDSSNVILKKYRNMVVRACGCH
- activity of the MSCA1 gene [4]: significantly increased
- expression of the MSCA1 gene [4]: significantly increased
- UCP1 gene expression ([4]; RT-PCR): significant increase
